One series concerns CYP3A. As to conditions: FDA guidance classification; cited from earlier work.
Series [1] in a line: Pharmacokinetics of lemborexant alone and in combination with fluconazole in healthy adults (Test Example 1-1). As to conditions: for Cmax (geometric mean): healthy adults. On the procedure:
A single dose of 10 mg lemborexant was administered to fourteen healthy adults (males and females, 18 to 55 years old) (single administration of lemborexant); 200 mg of fluconazole was administered one time per day (two times only on Day 11) from Day 11 to Day 26 where the single administration of the lemborexant was defined as Day 1; and a single dose of 10 mg lemborexant was administered on Day 15 (administration of lemborexant in combination with fluconazole). The concentrations of lemborexant in the plasma during the single administration of lemborexant and during the administration of lemborexant in combination with fluconazole were measured with a high performance liquid chromatograph/tandem mass spectrometry (hereinafter, referred to as “LC-MS/MS”) under the following conditions to calculate the geometric means of the Cmax and the AUC (0-inf).
(§1) HPLC (pump: LC-10ADvp or LC 20AD, Autosampler SLL 20ACHT, SHIMADZU Corporation) mass spectrometer (API5000 or API5500, AB Sciex)
(§2) A 10 μL solution of an internal standard substance (lemborexant labeled with deuterium) was added to 100 μL of a human plasma, and the resulting mixture was convened into a basic condition with 10 μL of aqueous ammonia and was subjected to liquid-liquid extraction with methyl tert-butyl ether (MTBE). After stirring (for about 10 minutes) and centrifugation (about 14000 rpm, for about 10 minutes) were performed, the upper layer was evaporated into dryness at 30° C. under a nitrogen stream, and was redissolved with 200 μL of a mixed solution (50/50, v/v) of 0.1% formic acid-containing acetonitrile/water to prepare a sample for LC-MS/MS.
(§3) The measurement was performed in an MRM mode by positive detection of an electrospray ionization (ESI) method. […] A variety of parameters for AP15500/5500 Qtrap used are shown below. Ion spray Voltage: 5500 v, Curtain Gas 40, CAD 8, Gas1 70, Gas2 70, DP100, Dwell time 250 (parameters are not limited to these)
(§4) The lemborexant concentration in the plasma was calculated using an internal standard calibration curve created through inverse regression according to the method of least squares generated from the ratio of the peak area of lemborexant to that of the internal standard substance.

A short description of series [2]: Prediction of pharmacokinetics of 2.5 mg lemborexant in combination with agent moderately or strongly inhibiting CYP3A (Test Example 1-3, dose proportionality). Format: in vivo, human. As to conditions: for AUC(0-inf) / Cmax: both sexes, human, plasma, oral; for AUC(0-inf): read-out: mean AUC (0-inf) achieved; for Cmax: read-out: mean Cmax achieved. As for the experimental part:
The results are shown in Tables 3 and 4 with the actually measured values of the single administration of 10 mg lemborexant in Sections (1-1) and (1-2) above.

Series [3] in a line: Pharmacokinetics of lemborexant alone and in combination with itraconazole in healthy adults (Test Example 1-2). As to conditions: for Cmax (geometric mean): healthy adults. On the procedure: as §1, §2, §3, §4
A single dose of 10 mg lemborexant was administered to fifteen healthy adults (males and females, 21 to 55 years old) (single administration of lemborexant); 200 mg of itraconazole was administered one time per day from Day 15 to Day 34 where the single administration of lemborexant was defined as Day 1; and a single dose of 10 mg lemborexant was administered on Day 22 (administration of lemborexant in combination with itraconazole).

Series [4] can be described thus: Single dose administration test of lemborexant in healthy adults (Test Example 3). The series is classed as in vivo, human. As to conditions: for AUC(0-inf) / Cmax: human, plasma, oral. On the procedure: In 64 cases of healthy adults under a feed-deprived condition, the pharmacokinetics of lemborexant administered with single doses of 1, 2.5, 5, 10, 25, 50, 100, and 200 mg thereof was examined by a randomized, double-blinded, placebo-controlled, multi-stage single administration test. In each group, lemborexant was administered to six cases, and the placebo was administered to two cases.
The transition of the mean lemborexant concentration in the plasma when single doses of 1, […], 10, 25, 50, 100, and 200 mg lemborexant were administered to the healthy adults is shown in FIG. 1.

Setting [5] is: 10 mg lemborexant in combination with fluconazole.
Setting [6] is: both, human, plasma, oral, 10 mg.
Setting [7] is: combination with fluconazole vs single administration, 10 mg lemborexant.
The mark [8] stands for this setting: single administration of 10 mg lemborexant, plasma.
Setting [9] is: 2.5 mg lemborexant in combination with fluconazole.
The mark [10] stands for this setting: 2.5 mg lemborexant in combination with itraconazole.
[11] abbreviates: 2.5 mg lemborexant, lower to upper limit of 95% CI in combination with fluconazole.
Where [12] appears, read: 2.5 mg lemborexant, lower to upper limit of 95% CI in combination with itraconazole.
Where [13] appears, read: 10 mg lemborexant in combination with itraconazole.
[14] abbreviates: combination with itraconazole vs single administration, 10 mg lemborexant.
Where [15] appears, read: all administration groups, in average.

As for `CCC(C)n1ncn(-c2ccc(N3CCN(c4ccc(OCC5COC(Cn6cncn6)(c6ccc(Cl)cc6Cl)O5)cc4)CC3)cc2)c1=O` (stereo not shown) [Itraconazole, itraconazole], in the series on CYP3A, the “Classification of CYP3A inhibiting action of drug used in combination” value is reported as “Strongly”.

For the compound `OC(Cn1cncn1)(Cn1cncn1)c1ccc(F)cc1F` [fluconazole], the “Classification of CYP3A inhibiting action of drug used in combination” value in the series with CYP3A was “moderately”.

Consider `Cc1ncc(OC[C@@]2(c3cccc(F)c3)C[C@H]2C(=O)Nc2ccc(F)cn2)c(C)n1` [lemborexant, (1R,2S)-2-(((2,4-dimethylpyrimidin-5-yl)oxy)methyl)-2-(3-fluorophenyl)-N-(5-fluoropyridin-2-yl)cyclopropanecarboxamide], for which the “increase of mean AUC (0-inf) compared to single administration” value in series [1] (setting [5]) worked out at 317%; in series [3] (setting [13]), 270%. Moreover, the “increase of mean Cmax compared to single administration” value in series [1] (setting [5]) came to 62%; in series [3] (setting [13]), 36%. Besides, the “Cmax (geometric mean)” value in series [1] (10 mg lemborexant in combination with fluconazole 200 mg once per day, plasma) is listed as 88.3 ng/mL; in series [1] (setting [8]), 54.4 ng/mL; in series [3] (10 mg lemborexant in combination with itraconazole 200 mg once per day, plasma), 73.9 ng/mL; in series [3] (setting [8]) it was 54.3 ng/mL. The AUC(0-inf) (usually total exposure, with the tail of the curve extrapolated) was 374 ng·h/mL in series [1] (setting [6]); 308 to 445 ng·h/mL in series [2] (setting [11]); 374 to 533 ng·h/mL in series [2] (setting [12]); 308 to 533 ng·h/mL in series [2] (2.5 mg lemborexant with moderate or strong CYP3A inhibitor, lower 95% CI limit with fluconazole to upper 95% CI limit with itraconazole); 433 ng·h/mL in series [3] (setting [6]); 146 ng·h/mL in series [4] (5 mg, single administration of 5 mg lemborexant, healthy adults, read-out: AUC(0-inf), Geometric mean). The AUC(0-inf) in series [4] (5 mg, single administration of 5 mg lemborexant, healthy adults, read-out: AUC(0-inf), Mean) turned out to be 149 ng·h/mL; in series [4] (5 mg, single administration of 5 mg lemborexant, healthy adults, read-out: AUC(0-inf), Median) it was 139 ng·h/mL; in series [4] (5 mg, single administration of 5 mg lemborexant, healthy adults, read-out: AUC(0-inf), Minimum value), 123 ng·h/mL; in series [4] (5 mg, single administration of 5 mg lemborexant, healthy adults, read-out: AUC(0-inf), maximum value) it was 209 ng·h/mL; in series [4] (5 mg, single dose of 5 mg lemborexant, read-out: AUC (0-inf), lower limit value of the 95% confidence interval), 113 ng·h/mL; in series [4] (5 mg, single dose of 5 mg lemborexant, read-out: AUC (0-inf), upper limit value of the 95% confidence interval), 189 ng·h/mL. The AUC(0-inf) in series [4] (10 mg, single administration of 10 mg lemborexant, healthy adults, read-out: AUC(0-inf), Geometric mean) came to 299 ng·h/mL; in series [4] (10 mg, single administration of 10 mg lemborexant, healthy adults, read-out: AUC(0-inf), Mean) it was 311 ng·h/mL; in series [4] (10 mg, single administration of 10 mg lemborexant, healthy adults, read-out: AUC(0-inf), Median) it was 314 ng·h/mL; in series [4] (10 mg, single administration of 10 mg lemborexant, healthy adults, read-out: AUC(0-inf), Minimum value) it was 188 ng·h/mL; in series [4] (10 mg, single administration of 10 mg lemborexant, healthy adults, read-out: AUC(0-inf), maximum value), 409 ng·h/mL; in series [4] (10 mg, single dose of 10 mg lemborexant, read-out: AUC (0-inf), lower limit value of the 95% confidence interval) it was 216 ng·h/mL. The AUC(0-inf) in series [4] (10 mg, single dose of 10 mg lemborexant, read-out: AUC (0-inf), upper limit value of the 95% confidence interval) was 414 ng·h/mL; in series [4] (dose 5 to 10 mg, lower 95% CI limit Table 9 (5 mg) to upper 95% CI limit Table 4 (10 mg), read-out: mean AUC (0-inf) achieved), 113 to 537 ng·h/mL. In addition, the “AUC(0-inf) ratio of (b) to (a)” value in series [1] (setting [7]) is 4.17. In addition, in series [1] (setting [7]), the “Cmax ratio of (b) to (a)” value turned out to be 1.62. For the same compound, the “AUC(0-inf), predicted value (geometric mean)” value in series [2] (setting [9]) was 370 ng·h/mL; in series [2] (setting [10]), 447 ng·h/mL. The entries for the “Cmax, predicted value (geometric mean)” value in series [2] (setting [9]) and in series [2] (setting [10]) were 22.1 ng/mL and 18.9 ng/mL, respectively. Moreover, the “predicted mean AUC (0-inf) lower than mean AUC (0-inf) of single 10 mg dose” value in series [2] (setting [9]) is given as 1.1%. In series [2] (setting [9]), the “predicted mean Cmax lower than mean Cmax of single 10 mg dose” value was 59.4%. The “predicted mean AUC (0-inf) higher than mean AUC (0-inf) of single 10 mg dose” value in series [2] (setting [10]) is 32%. Besides, the Cmax (in general, the peak of the concentration-time curve) is 18.1 to 26.9 ng/mL in series [2] (setting [11]); 17 to 21.1 ng/mL in series [2] (setting [12]); 17 to 26.9 ng/mL in series [2] (2.5 mg, 2.5 mg lemborexant with moderate or strong CYP3A inhibitor, lower 95% CI limit with itraconazole to upper 95% CI limit with fluconazole); 22.3 ng/mL in series [4] (5 mg, single administration of 5 mg lemborexant, healthy adults, read-out: Cmax, Geometric mean); 22.7 ng/mL in series [4] (5 mg, single administration of 5 mg lemborexant, healthy adults, read-out: Cmax, Mean); 21.9 ng/mL in series [4] (5 mg, single administration of 5 mg lemborexant, healthy adults, read-out: Cmax, Median). Besides, the Cmax in series [4] (5 mg, single administration of 5 mg lemborexant, healthy adults, read-out: Cmax, Minimum value) is 17.2 ng/mL; in series [4] (5 mg, single administration of 5 mg lemborexant, healthy adults, read-out: Cmax, maximum value), 30 ng/mL; in series [4] (5 mg, single dose of 5 mg lemborexant, read-out: Cmax, lower limit value of the 95% confidence interval), 18.3 ng/mL; in series [4] (5 mg, single dose of 5 mg lemborexant, read-out: Cmax, upper limit value of the 95% confidence interval), 27.3 ng/mL; in series [4] (10 mg, single administration of 10 mg lemborexant, healthy adults, read-out: Cmax, Geometric mean), 32 ng/mL; in series [4] (10 mg, single administration of 10 mg lemborexant, healthy adults, read-out: Cmax, Mean), 36 ng/mL. The Cmax in series [4] (10 mg, single administration of 10 mg lemborexant, healthy adults, read-out: Cmax, Median) is 31.4 ng/mL; in series [4] (10 mg, single administration of 10 mg lemborexant, healthy adults, read-out: Cmax, Minimum value) it was 16.9 ng/mL; in series [4] (10 mg, single administration of 10 mg lemborexant, healthy adults, read-out: Cmax, maximum value) it was 62.1 ng/mL; in series [4] (10 mg, single dose of 10 mg lemborexant, read-out: Cmax, lower limit value of the 95% confidence interval) it was 18.3 ng/mL; in series [4] (dose 5 to 10 mg, lower limit for 5 mg with weak CYP3A inhibitor to upper 95% CI limit Table 8 (10 mg), read-out: mean Cmax achieved), 16.5 to 56 ng/mL. The “AUC(0-inf) ratio of (d) to (c)” value in series [3] (setting [14]) is recorded as 3.70. Moreover, in series [3] (setting [14]), the “Cmax ratio of (d) to (c)” value is 1.36. Moreover, the “exposure until 9 hours after administration as proportion of the AUC (0-inf)” value in series [4] (setting [15]) is “about 45%”. Also, the “exposure until 9 hours after administration as proportion of the exposure until 24 hours” value in series [4] (setting [15]) is reported as “about 75%”. The “increase of geometric mean Cmax relative to dose” value in series [4] (dose of 10 mg or more) is recorded as “slightly lower than the dose ratio”. Also, the “dose dependence of the mean AUC (0-24 h)” value in series [4] (examined dose range 1 to 200 mg) is recorded as “approximately dose proportionality”. The “Cmax, upper limit value of the 95% confidence interval” value in series [4] (single dose of 10 mg lemborexant) was 56.0 ng/mL. Besides, the “elimination profile of plasma concentration after administration” value in series [4] (single doses 1 to 200 mg, healthy adults) is on record as “biphasic elimination”.
